Measurements published in publication PMC12481029, “Design, synthesis, antiproliferative assessments, and computational studies of new quinolin-2(1H)-ones as dual EGFR/HER-2 inhibitors” (Frontiers in Chemistry, 2025).
Values joined by “and” are separate entries in the source; they are usually repeats but may differ in a detail not shown here. Equal values may be shown once.

Columns and labels:
[1] = Cell viability assay (MTT), normal mammary cells; settings: human, MCF-10A normal mammary epithelial cells
Procedure: (§4) MTT assay was performed to investigate the effect of the synthesized compounds on mammary epithelial cells (MCF-10A). The cells were propagated in medium consisting of Ham's F-12 medium/ Dulbecco's modified Eagle's medium (DMEM) (1:1) supplemented with 10% foetal calf serum, 2 mM glutamine, insulin (10 μg/mL), hydrocortisone (500 ng/mL) and epidermal growth factor (20 ng/mL). Trypsin ethylenediamine tetra acetic acid (EDTA) was used to passage the cells after every 2-3 days. 96-well flat-bottomed cell culture plates were used to seed the cells at a density of 10^4 cells mL^-1. The medium was aspirated from all the wells of culture plates after 24 h followed by the addition of synthesized compounds (in 200 μL medium to yield a final concentration of 0.1% (v/v) dimethyl sulfoxide) into individual wells of the plates. Four wells were designated to a single compound. The plates were allowed to incubate at 37°C for 96 h. Afterwards, the medium was aspirated and 3-[4,5-dimethylthiazol-2-yl]-2,5-diphenyltetrazolium bromide (MTT) (0.4 mg/mL) in medium was added to each well and subsequently incubated for 3 h. The medium was aspirated and 150 μL dimethyl sulfoxide (DMSO) was added to each well. The plates were vortexed followed by the measurement of absorbance at 540 nm on a microplate reader.

[2] = tested on: lung (A-549) cancer cell line; test: Antiproliferative assay, A-549; assay type: cell-based; settings: Homo sapiens, A549; read-out: Antiproliferative activity IC50 ± SEM, A-549
Excerpt: (§1) The MTT assay ([Al-Wahaibi et al., 2022]; [Mahmoud et al., 2023]) was employed to assess the antiproliferative effects of compounds 3a-h and 5a-g on four human cancer cell lines: colon (HT-29) cancer, pancreatic (Panc-1) cancer, lung (A-549) cancer, and breast (MCF-7) cancer cell lines. Erlotinib was applied as a reference. Table 1 presents the median inhibitory concentration (IC50) and average IC50 (GI50) values for each compound evaluated on the four cancer cell lines.
(§2) Compounds 3a-h and 5a-g were tested for their antiproliferative activities on four human cancer cell lines: colon (HT-29), pancreatic (Panc-1), lung (A-549), and breast (MCF-7) using the MTT assay ([Al-Wahaibi et al., 2022]; [Mahmoud et al., 2023]). Erlotinib was applied as a reference.
(§3) To explore the antiproliferative potential of compounds propidium iodide fluorescence assay was performed using different cell lines such as Panc-1 (pancreas cancer cell line), MCF-7 (breast cancer cell line), HT-29 (colon cancer cell line) and A-549 (epithelial cancer cell line), respectively. To calculate the total nuclear DNA, a fluorescent dye (propidium iodide, PI) is used which can attach to the DNA, thus offering a quick and precise technique. PI cannot pass through the cell membrane and its signal intensity can be considered as directly proportional to quantity of cellular DNA. Cells whose cell membranes are damaged or have changed permeability are counted as dead ones. The assay was performed by seeding the cells of different cell lines at a density of 3000-7500 cells/well (in 200μl medium) in culture plates followed by incubation for 24h at 37 °C in humidified 5%CO2/95% air atmospheric conditions. The medium was removed; the compounds were added to the plates at 10 μM concentrations (in 0.1% DMSO) in triplicates, followed by incubation for 48h. DMSO (0.1%) was used as control. After incubation, medium was removed followed by the addition of PI (25 μl, 50μg/mL in water/medium) to each well of the plates. At -80 °C, the plates were allowed to freeze for 24 h, followed by thawing at 25 °C. A fluorometer (Polar-Star BMG Tech) was used to record the readings at excitation and emission wavelengths of 530 and 620 nm for each well. The percentage cytotoxicity of compounds was calculated using the following formula: […]

[3] = tested on: colon (HT-29) cancer cell line; test: Antiproliferative assay, HT-29; assay type: cell-based; settings: Homo sapiens, read-out: Antiproliferative activity IC50 ± SEM, HT-29
[4] = tested on: pancreatic (Panc-1) cancer cell line; test: Antiproliferative assay, Panc-1; assay type: cell-based; settings: Homo sapiens, read-out: Antiproliferative activity IC50 ± SEM, Panc-1
Excerpt: as §1, §2, §3

[5] = tested on: four human cancer cell lines (A-549, MCF-7, Panc-1, HT-29); test: Antiproliferative assay, average over four cancer cell lines; assay type: cell-based; settings: for GI50: Homo sapiens, average IC50 over the four cancer cell lines; for Potency reduction (fold) compared to 3d (GI50): ratio to 3d GI50 = 41 nM
[6] = tested on: breast (MCF-7) cancer cell line; test: Antiproliferative assay, MCF-7; assay type: cell-based; settings: Homo sapiens, MCF7; read-out: Antiproliferative activity IC50 ± SEM, MCF-7
Excerpt: as §1, §2, §3

[7] = target: EGFR (Homo sapiens, UniProt P00533); test: EGFR inhibitory assay (EGFR-TK test); settings: for IC50: EGFR inhibition IC50 ± SEM; for Fold less effective than erlotinib, EGFR inhibition: ratio to erlotinib IC50
Chain of EGFR (P00533 669-1210): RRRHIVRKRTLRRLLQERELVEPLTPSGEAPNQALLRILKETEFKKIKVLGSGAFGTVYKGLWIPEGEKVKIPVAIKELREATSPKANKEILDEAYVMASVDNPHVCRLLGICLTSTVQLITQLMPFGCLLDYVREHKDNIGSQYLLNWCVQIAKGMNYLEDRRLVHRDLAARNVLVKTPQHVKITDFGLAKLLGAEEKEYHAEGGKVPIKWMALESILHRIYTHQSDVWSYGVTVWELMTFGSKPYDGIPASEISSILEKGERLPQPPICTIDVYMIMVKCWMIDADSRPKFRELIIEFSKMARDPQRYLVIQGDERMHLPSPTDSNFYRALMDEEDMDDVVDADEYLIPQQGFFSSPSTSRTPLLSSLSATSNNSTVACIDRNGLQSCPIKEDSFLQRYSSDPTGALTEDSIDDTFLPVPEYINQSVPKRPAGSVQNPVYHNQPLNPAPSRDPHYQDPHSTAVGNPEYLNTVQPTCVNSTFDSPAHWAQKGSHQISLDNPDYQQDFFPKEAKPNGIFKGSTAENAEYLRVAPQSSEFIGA
Procedure: 5ʹ upstream to the EGFR sequence comprised a sequence that encoded (His)6. Sf-9 cells were infected for 72h for protein expression. The pellets of Sf-9 cells were solubilized in a buffer containing sodium vanadate (100 μM), aprotinin (10 μg/mL), triton (1%), HEPES buffer(50mM), ammonium molybdate (10 μM), benzamidine HCl (16 μg/mL), NaCl (10 mM),leupeptin (10 μg/mL) and pepstatin (10 μg/mL) at 0°C for 20 min at pH 7.4, followed by centrifugation for 20 min. To eliminate the nonspecifically bound material, a Ni-NTA super flow packed column was used to pass through and wash the crude extract supernatant first with 10mM and then with 100 mM imidazole. Histidine-linked proteins were first eluted with 250 and then with 500 mM imidazole subsequent to dialysis against NaCl (50 mM), HEPES (20 mM), glycerol (10%) and 1 μg/mL each of aprotinin, leupeptin and pepstatin for 120 min. The purification was performed either at 4 °C or on ice. To record autophosphorylation level, EGFR kinase assay was carried out on the basis of DELFIA/Time-Resolved Fluorometry. […] Each compound (10 μL) was incubated with recombinant enzyme (10 μL, 5 ng for EGFR, 1:80 dilution in 100 mM HEPES) for 10 min at 25 °C, subsequent to the addition of 5X buffer (10 μL, containing 2 mM MnCl2, 100 μM Na3VO4, 20 mM HEPES and 1 mM DTT) and ATP-MgCl2 (20 μL, containing 0.1 mM ATP and 50 mM MgCl2) and incubation for 1h. The negative and positive controls were included in each plate by the incubation of enzyme either with or without ATP-MgCl2. The liquid was removed after incubation and the plates were washed thrice using a wash buffer. The Europium-tagged antiphosphotyrosine antibody (75 μL, 400 ng) was added to each well followed by incubation of 1h and then washing of the plates using buffer. […] The autophosphorylation percentage inhibition by compounds was calculated using the following equation:
The majority of signals detected by antiphosphotyrosine antibody were from EGFR because the enzyme preparation contained low impurities.

[8] = target: HER-2 (Homo sapiens, UniProt P04626); test: HER-2 inhibitory assay (ADP-Glo kinase assay)
Chain of HER-2 (P04626 676-1255 limits assumed): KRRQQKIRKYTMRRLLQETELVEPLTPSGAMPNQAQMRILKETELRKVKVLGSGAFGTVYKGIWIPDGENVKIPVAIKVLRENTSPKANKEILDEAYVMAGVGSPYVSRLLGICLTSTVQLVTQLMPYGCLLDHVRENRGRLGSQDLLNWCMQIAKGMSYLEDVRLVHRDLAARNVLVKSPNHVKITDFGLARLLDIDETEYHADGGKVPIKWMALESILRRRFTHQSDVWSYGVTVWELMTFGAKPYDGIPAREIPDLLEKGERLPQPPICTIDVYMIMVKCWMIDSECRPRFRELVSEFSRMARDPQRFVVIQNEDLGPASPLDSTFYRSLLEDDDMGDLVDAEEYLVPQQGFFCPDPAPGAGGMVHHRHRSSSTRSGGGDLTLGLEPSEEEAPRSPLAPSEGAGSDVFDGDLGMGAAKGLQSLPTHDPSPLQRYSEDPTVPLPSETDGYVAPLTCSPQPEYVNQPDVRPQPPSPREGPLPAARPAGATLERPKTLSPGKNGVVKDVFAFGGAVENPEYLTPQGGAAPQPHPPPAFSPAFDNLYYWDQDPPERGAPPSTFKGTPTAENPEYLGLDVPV
Procedure: The ADP-Glo™ Kinase Assay was used for kinase activity detection, related kinases information: HER-2 (ab60866, Abcam), with a concentration of 100 ng/mL. Target compounds were dissolved in DMSO to obtain drug solutions with different concentrations, and the compound concentrations in the final reaction system (100 μL) were 1 nM, 20 nM, 40 nM, 80 nM, and 100 nM, respectively. 10μL of the solution containing compounds was transferred to a 96-well plate, then added 40 μL of 1 × kinase buffer (50 mM HEPES, pH 7.5) to each well, and mixed the mixture in the 96-well plate on a shaker for 10 min. Next, added 25 μL of ADP-Glo™ reagent to the above wells, mixed and incubated for another 40 min. Distributed 10 μL kinase detection reagent to the reaction and incubated for 30 min. Finally, the full-wavelength microplate reader was used to record the OD value.

[9] = tested on: Cytochrome C; test: Cytochrome C assay; settings: MCF-7 cells
Procedure: This lysate was diluted in Standard Diluent Buffer over the range of the assay and measured for cytochrome C content. (Cells are Plated in cells/well in a volume of 100µl complete growth medium + 100 µl of the tested compound + 50 µl of 1X biotin conjugated antibody+ 100 µl of 1X streptavidin-HRP+ 100 µL TMB substrate solution of per well in a 96-well plate for 24 hours before assay).

[10] = tested on: Caspase-9; test: Caspase-9 activation assay; assay type: cell-based, human; settings: MCF-7 cells
Procedure: To elucidate the apoptotic mechanism of compounds 3d and 5a, whether via the intrinsic or extrinsic pathway, their impact on caspase-8 and caspase-9 was evaluated.
RPMI 1640 with 10% FBS was used to assist the cells grow at 37 °C, and then the cells were treated with the compounds being studied to check the activity of caspase-3, -8, and -9 ([Hisham et al., 2019]). Refer to Supplementary Appendix A.
Cells were obtained from American Type Culture Collection, cells were grown in RPMI 1640 containing 10% fetal bovine serum at 37°C, stimulated with the compounds to be tested for caspase8, and lysed with Cell Extraction Buffer. This lysate was diluted in Standard Diluent Buffer over the range of the assay and measured for human active caspase-8 content. (Cells are Plated in a density of 1.2 – 1.8 × 10,000 cells/well in a volume of 100µl complete growth medium + 100 ul of the tested compound per well in a 96-well plate for 24 hours before the enzyme assay for Tubulin.). The absorbance of each microwell was read on a spectro-photometer at 450 nm. A standard curve is prepared from 7human Caspase-8 standard dilutions and human Caspase-8 concentration determined.

[11] = tested on: Bcl-2; test: Bcl-2 level assay; settings: MCF-7 cells
Procedure: Mix all reagents thoroughly without foaming before use. Wash the microwells twice with approximately 300 μL Wash Buffer per well with thorough aspiration of microwell contents between washes. Take caution not to scratch the surface of the microwells. After the last wash, empty the wells and tap microwell strips on absorbent pad or paper towel to remove excess Wash Buffer. Use the microwell strips immediately after washing or place upside down on a wet absorbent paper for not longer than 15 minutes. […] Add 100 μL of Sample Diluent in duplicate to all standard wells and to the blank wells. […] Add 100 μL of Sample Diluent, in duplicate, to the blank wells. Add 80 μL of Sample Diluent, in duplicate, to the sample wells. Add 20 μL of each Sample, in duplicate, to the designated wells. Add 50 μL of diluted biotin-conjugate to all wells, including the blank wells. Cover with a plate cover and incubate at room temperature, on a microplate shaker at 100 rpm if available, for 2 hours. Remove plate cover and empty the wells. Wash microwell strips 3 times as described in step 2. Add 100 μL of diluted Streptavidin-HRP to all wells, including the blank wells. Cover with a plate cover and incubate at room temperature, on a microplate shaker at 100 rpm if available, for 1 hour. Remove plate cover and empty the wells. Wash microwell strips 3 times as described in step 2. […] Pipette 100 μl of mixed TMB Substrate Solution to all wells, including the blanks. Incubate the microwell strips at room temperature (18° to 25°C) for about 15 minutes, if available on a rotator set at 100 rpm. Avoid direct exposure to intense light. The point, at which the substrate reaction is stopped, is often determined by the ELISA reader. Many ELISA readers record absorbance only up to 2.0 O.D. Therefore, the color development within individual microwells must be watched by the person running the assay and the substrate reaction stopped before positive wells are no longer properly detectable. Stop the enzyme reaction by quickly pipetting 100 μL of Stop Solution into each well, including the blank wells. It is important that the Stop Solution is spread quickly and uniformly throughout the microwells to completely inactivate the enzyme. Results must be read immediately after the Stop Solution is added or within one hour if the microwell strips are stored at 2 - 8°C in the dark. Read absorbance of each microwell on a spectrophotometer using 450 nm as the primary wavelength.

[12] = tested on: Bax; test: Bax level assay; settings: MCF-7 cells
Procedure: Bring all reagents, except the human Bax-α Standard, to room temperature for at least 30 minutes prior to opening. The human Bax-α Standard solution should not be left at room temperature for more than 10 minutes. All standards, controls and samples should be run in duplicate. Refer to the Assay Layout Sheet to determine the number of wells to be used and put any remaining wells with the desiccant back into the pouch and seal the ziploc. Store unused wells at 4 °C. Pipet 100 μL of Assay Buffer into the S0 (0 pg/mL standard) wells. Pipet 100 μL of Standards #1 through #6 into the appropriate wells. Pipet 100 μL of the Samples into the appropriate wells. Tap the plate gently to mix the contents. Seal the plate and incubate at room temperature on a plate shaker for 1 hour at ~500 rpm. Empty the contents of the wells and wash by adding 400 μL of wash solution to every well. Repeat the wash 4 more times for a total of 5 washes. After the final wash, empty or aspirate the wells and firmly tap the plate on a lint free paper towel to remove any remaining wash buffer. Pipet 100 μL of yellow Antibody into each well, except the Blank. Seal the plate and incubate at room temperature on a plate shaker for 1 hour at ~500 rpm. Empty the contents of the wells and wash by adding 400 μL of wash solution to every well. Repeat the wash 4 more times for a total of 5 washes. After the final wash, empty or aspirate the wells and firmly tap the plate on a lint free paper towel to remove any remaining wash buffer. Add 100 μL of blue Conjugate to each well, except the Blank. Seal the plate and incubate at room temperature on a plate shaker for 30 minutes at ~500 rpm. Empty the contents of the wells and wash by adding 400 μL of wash solution to every well. Repeat the wash 4 more times for a total of 5 washes. After the final wash, empty or aspirate the wells and firmly tap the plate on a lint free paper towel to remove any remaining wash buffer. Pipet 100 μL of Substrate Solution into each well. Incubate for 30 minutes at room temperature on a plate shaker at ~500 rpm. Pipet 100 μL Stop Solution to each well. Blank the plate reader against the Blank wells, read the optical density at 450 nm. Calculate the average net Optical Density (OD) bound for each standard and sample by subtracting the average Blank OD from the average OD for each standard and sample. Using linear graph paper, plot the Average Net OD for each standard versus Bax concentration in each standard. Approximate a straight line through the points. The concentration of Bax in the unknowns can be determined by interpolation.

[13] = in vitro; settings: human
Procedure: as §4

COc1ccc2[nH]c(=O)c(/C=N/NS(=O)(=O)c3ccc(C)cc3)c(O)c2c1 [Compound 3b, (E)-N'-((4-hydroxy-6-methoxy-2-oxo-1,2-dihydroquinolin-3-yl)methylene)-4-methyl benzenesulfonohydrazide]
viability at 4 days, 50 µM [1]: 92%
IC50 [2]: 0.056 ± 0.005 µM
IC50 [3]: 0.058 ± 0.005 µM
IC50 [4]: 0.056 ± 0.005 µM
GI50 [5]: 0.056 µM
Potency reduction (fold) compared to 3d (GI50) [5]: 1.4
IC50 [6]: 0.052 ± 0.005 µM

Cc1ccc(S(=O)(=O)N/N=C/c2c(O)c3cc(C)ccc3[nH]c2=O)cc1 [Compound 3c, (E)-N'-((4-hydroxy-6-methyl-2-oxo-1,2-dihydroquinolin-3-yl)methylene)-4-methylbenzenesulfonohydrazide]
viability at 4 days, 50 µM [1]: 86%
IC50 [2]: 0.05 ± 0.005 µM
IC50 [7]: 0.095 µM and 0.099 µM
Fold less effective than erlotinib, EGFR inhibition [7]: 1.2
IC50 [3]: 0.052 ± 0.004 µM
IC50 [4]: 0.053 ± 0.005 µM
GI50 [5]: 0.051 µM
Potency reduction (fold) compared to 3d (GI50) [5]: 1.3
IC50 [6]: 0.048 ± 0.004 µM
IC50 [8]: 0.049 ± 0.003 µM

CN[C@@H]1C[C@H]2O[C@@](C)([C@@H]1OC)n1c3ccccc3c3c4c(c5c6ccccc6n2c5c31)C(=O)NC4 [Staurosporine, reference compound]
Cytochrome C Conc [9]: 0.50 ng/mL
Caspase-9 Conc [10]: 20 ± 1 ng/mL
Bcl-2 Conc [11]: 1.00 ng/mL
Bax Conc [12]: 290 ± 2 pg/mL
Bax Conc ([12]; listed as staurosporine): 290 pg/mL

Cc1ccc(S(=O)(=O)N/N=C/c2c(O)c3cc(Cl)ccc3[nH]c2=O)cc1 [Compound 3f, (E)-N'-((6-chloro-4-hydroxy-2-oxo-1,2-dihydroquinolin-3-yl)methylene)-4-methyl benzenesulfonohydrazide]
viability at 4 days, 50 µM [1]: 90%
IC50 [2]: 0.046 ± 0.004 µM
IC50 [7]: 0.099 µM and 0.095 µM
Fold less effective than erlotinib, EGFR inhibition [7]: 1.2
IC50 [3]: 0.048 ± 0.004 µM
IC50 [4]: 0.046 ± 0.004 µM
GI50 [5]: 0.046 µM
IC50 [6]: 0.043 ± 0.004 µM
IC50 [8]: 0.044 ± 0.003 µM

COc1ccc2[nH]c(=O)c(/C=N/Nc3ccc([N+](=O)[O-])cc3[N+](=O)[O-])c(O)c2c1 [Compound 5c, (E)-3-((2-(2,4-Dinitrophenyl)hydrazono)methyl)-4-hydroxy-6-methoxy quinolin-2(1H)-one]
viability at 4 days, 50 µM [13]: 89%
IC50 [2]: 0.065 ± 0.006 µM
IC50 [3]: 0.068 ± 0.006 µM
IC50 [4]: 0.069 ± 0.006 µM
GI50 [5]: 0.066 µM
IC50 [6]: 0.062 ± 0.006 µM

O=c1[nH]c2ccc(Cl)cc2c(O)c1/C=N/Nc1ccc([N+](=O)[O-])cc1[N+](=O)[O-] [Compound 5g, (E)-6-Chloro-3-((2-(2,4-dinitrophenyl)hydrazono)methyl)-4-hydroxy quinolin-2(1H)-one]
viability at 4 days, 50 µM [13]: 91%
IC50 [2]: 0.081 ± 0.008 µM
IC50 [3]: 0.082 ± 0.008 µM
IC50 [4]: 0.082 ± 0.008 µM
GI50 [5]: 0.081 µM
IC50 [6]: 0.078 ± 0.007 µM

Cc1ccc2c(O)c(/C=N/Nc3ccc([N+](=O)[O-])cc3[N+](=O)[O-])c(=O)[nH]c2c1 [Compound 5f, (E)-3-((2-(2,4-Dinitrophenyl)hydrazono)methyl)-4-hydroxy-7-methyl quinolin-2(1H)-one]
viability at 4 days, 50 µM [13]: 90%
IC50 [2]: 0.085 ± 0.008 µM
IC50 [3]: 0.086 ± 0.008 µM
IC50 [4]: 0.086 ± 0.008 µM
GI50 [5]: 0.085 µM
IC50 [6]: 0.083 ± 0.008 µM

Cc1ccc2[nH]c(=O)c(/C=N/Nc3ccc([N+](=O)[O-])cc3[N+](=O)[O-])c(O)c2c1 [Compound 5b, (E)-3-((2-(2,4-Dinitrophenyl)hydrazono)methyl)-4-hydroxy-6-methyl quinolin-2(1H)-one]
viability at 4 days, 50 µM [1]: 90%
IC50 [2]: 0.052 ± 0.005 µM
IC50 [7]: 0.106 ± 0.007 µM
IC50 [3]: 0.054 ± 0.005 µM
IC50 [4]: 0.054 ± 0.005 µM
GI50 [5]: 0.053 µM
IC50 [6]: 0.05 ± 0.005 µM
IC50 [8]: 0.056 ± 0.004 µM

Cc1cccc2c(O)c(/C=N/Nc3ccc([N+](=O)[O-])cc3[N+](=O)[O-])c(=O)[nH]c12 [Compound 5d, (E)-3-((2-(2,4-Dinitrophenyl)hydrazono)methyl)-4-hydroxy-8-methyl quinolin-2(1H)-one]
viability at 4 days, 50 µM [13]: 92%
IC50 [2]: 0.071 ± 0.007 µM
IC50 [3]: 0.074 ± 0.007 µM
IC50 [4]: 0.074 ± 0.007 µM
GI50 [5]: 0.072 µM
IC50 [6]: 0.067 ± 0.006 µM

CCn1c(=O)c(/C=N/NS(=O)(=O)c2ccc(C)cc2)c(O)c2ccccc21 [Compound 3e, (E)-N'-((1-Ethyl-4-hydroxy-2-oxo-1,2-dihydroquinolin-3-yl)methylene)-4-methyl benzenesulfonohydrazide]
viability at 4 days, 50 µM [1]: 89%
IC50 [2]: 0.062 ± 0.006 µM
IC50 [3]: 0.064 ± 0.006 µM
IC50 [4]: 0.064 ± 0.006 µM
GI50 [5]: 0.063 µM
IC50 [6]: 0.061 ± 0.006 µM

Cc1ccc(S(=O)(=O)N/N=C/c2c(O)c3ccccc3n(C)c2=O)cc1 [Compound 3a, (E)-N'-((4-hydroxy-1-methyl-2-oxo-1,2-dihydroquinolin-3-yl)methylene)-4-methylbenzenesulfonohydrazide]
viability at 4 days, 50 µM [1]: 90%
IC50 [2]: 0.092 ± 0.009 µM
IC50 [3]: 0.094 ± 0.009 µM
IC50 [4]: 0.094 ± 0.009 µM
GI50 [5]: 0.092 µM
Potency reduction (fold) compared to 3d (GI50) [5]: at least 2.3
IC50 [6]: 0.089 ± 0.008 µM

Cn1c(=O)c(/C=N/Nc2ccc([N+](=O)[O-])cc2[N+](=O)[O-])c(O)c2ccccc21 [Compound 5e, (E)-3-((2-(2,4-Dinitrophenyl)hydrazono)methyl)-4-hydroxy-1-methyl quinolin-2(1H)-one]
viability at 4 days, 50 µM [13]: 87%
IC50 [2]: 0.076 ± 0.007 µM
IC50 [3]: 0.078 ± 0.007 µM
IC50 [4]: 0.076 ± 0.007 µM
GI50 [5]: 0.076 µM
IC50 [6]: 0.074 ± 0.007 µM

Cc1ccc(S(=O)(=O)N/N=C/c2c(O)c3ccc(C)cc3[nH]c2=O)cc1 [Compound 3g, (E)-N'-((4-hydroxy-7-methyl-2-oxo-1,2-dihydroquinolin-3-yl)methylene)-4-methyl benzenesulfonohydrazide]
viability at 4 days, 50 µM [1]: 87%
IC50 [2]: 0.094 ± 0.009 µM
IC50 [3]: 0.096 ± 0.009 µM
IC50 [4]: 0.094 ± 0.009 µM
GI50 [5]: 0.094 µM
Potency reduction (fold) compared to 3d (GI50) [5]: at least 2.3
IC50 [6]: 0.09 ± 0.009 µM

Cc1ccc(S(=O)(=O)N/N=C/c2c(O)c3cccc(C)c3[nH]c2=O)cc1 [Compound 3h, (E)-N'-((4-hydroxy-8-methyl-2-oxo-1,2-dihydroquinolin-3-yl)methylene)-4-methyl benzenesulfonohydrazide]
viability at 4 days, 50 µM [1]: 90%
IC50 [2]: > 0.1 µM
IC50 [3]: > 0.1 µM
IC50 [4]: > 0.1 µM
GI50 [5]: > 0.1 µM
Potency reduction (fold) compared to 3d (GI50) [5]: at least 2.3
IC50 [6]: > 0.1 µM
